Reference: US12138256B2, “Treatment of cardiopulmonary disorders” (Bayer Aktiengesellschaft, priority 2021, dated 2024)
Several values for one entry are separate records, joined by “and”; a condition that tells them apart may be missing. Equal values may be shown once.

Test system: thromboxane analog U46619 induced PAH in minipigs
Assay: Haemodynamics (PAP, BP) in the anesthetized thromboxane challenged PAH minipig after inhaled (nebulized) application (C-2.1)
Format: in vivo, Göttingen minipig
Conditions: for BP % change vs. baseline / PAP % change vs. baseline: 100 μg/kg nominal dose, individual animals
In short: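 Anesthetized, ventilated Göttingen minipigs (2-6 kg) given continuous infusion (0.3-0.75 μg/kg/min) to raise mean PAP above 25 mmHg, dosing starting after a 30 min plateau. Compound in 1% DMSO/0.2% citric acid, pH 8, nebulized via Aeroneb Pro into the inspiratory arm (~7 min; stock 300 μg/kg). PAP by Swan-Ganz catheter, BP via carotid catheter.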

[1] = inhaled 30 μg/kg, 0 min vs. start inhalation
[2] = inhaled 30 μg/kg, 10 min vs. start inhalation
[3] = inhaled 30 μg/kg, 20 min vs. start inhalation
[4] = inhaled 30 μg/kg, 30 min vs. start inhalation
[5] = inhaled 30 μg/kg, 40 min vs. start inhalation
[6] = inhaled 30 μg/kg, 50 min vs. start inhalation
[7] = inhaled 30 μg/kg, 60 min vs. start inhalation
[8] = inhaled 30 μg/kg, 70 min vs. start inhalation
[9] = inhaled 30 μg/kg, 80 min vs. start inhalation
[10] = inhaled 30 μg/kg, 90 min vs. start inhalation
[11] = inhaled 30 μg/kg, 100 min vs. start inhalation
[12] = inhaled 30 μg/kg, 110 min vs. start inhalation
[13] = inhaled 30 μg/kg, 120 min vs. start inhalation
[14] = inhaled 30 μg/kg, 130 min vs. start inhalation
[15] = inhaled 30 μg/kg, 140 min vs. start inhalation
[16] = inhaled 30 μg/kg, 150 min vs. start inhalation
[17] = inhaled 30 μg/kg, 160 min vs. start inhalation
[18] = inhaled 30 μg/kg, 170 min vs. start inhalation
[19] = inhaled 30 μg/kg, 180 min vs. start inhalation
[20] = inhaled 30 μg/kg, 190 min vs. start inhalation
[21] = inhaled 30 μg/kg, 200 min vs. start inhalation
[22] = inhaled 30 μg/kg, 210 min vs. start inhalation
[23] = inhaled 30 μg/kg, 220 min vs. start inhalation
[24] = inhaled 30 μg/kg, 230 min vs. start inhalation
[25] = inhaled 30 μg/kg, 240 min vs. start inhalation
[26] = inhaled 30 μg/kg, −5 min vs. start inhalation

Compound: O=C(O)CCCCN(CCc1cc(F)ccc1OCc1ccc(-c2nc3cc(Cl)ccc3o2)cc1)C1CCCc2nc(C(=O)O)ccc21 (single isomer, unassigned) [comparative example 3, (5)-{(4-carboxybutyl)[2-(2-{[4-(5-chloro-1,3-benzoxazol-2-yl)benzyl]oxy}-5-fluorophenyl)ethyl]amino}-5,6,7,8-tetrahydroquinoline-2-carboxylic acid]
- time of maximum effect on PAP (after inhaled application (nebulization), comparative example 11 30 μg/kg, Cinaciguat 3 and 10 μg/kg, Riociguat 100 μg/kg, comparative example 3 30 μg/kg): 30 min
- duration of action (PAP decrease) (after inhaled application (nebulization), comparative example 11 30 μg/kg, Cinaciguat 3 and 10 μg/kg, Riociguat 100 μg/kg, comparative example 3 30 μg/kg, observation interval 240 min): 120 min
- % changes in BP vs baseline [1]: 100% and 99%
- % changes in PAP vs baseline [1]: 100% and 99%
- % changes in BP vs baseline [2]: 98% and 93%
- % changes in PAP vs baseline [2]: 103% and 99%
- % changes in BP vs baseline [3]: 94% and 87%
- % changes in PAP vs baseline [3]: 103% and 97%
- % changes in BP vs baseline [4]: 95% and 84%
- % changes in PAP vs baseline [4]: 104% and 98%
- % changes in BP vs baseline [5]: 97% and 81%
- % changes in PAP vs baseline [5]: 105% and 95%
- % changes in BP vs baseline [6]: 98% and 86%
- % changes in PAP vs baseline [6]: 106% and 95%
- % changes in BP vs baseline [7]: 101% and 88%
- % changes in PAP vs baseline [7]: 108% and 94%
- % changes in BP vs baseline [8]: 103% and 88%
- % changes in PAP vs baseline [8]: 108% and 93%
- % changes in BP vs baseline [9]: 104% and 92%
- % changes in PAP vs baseline [9]: 110% and 96%
- % changes in BP vs baseline [10]: 106% and 95%
- % changes in PAP vs baseline [10]: 110% and 94%
- % changes in BP vs baseline [11]: 107% and 96%
- % changes in PAP vs baseline [11]: 111% and 93%
- % changes in BP vs baseline [12]: 109% and 100%
- % changes in PAP vs baseline [12]: 111% and 93%
- % changes in BP vs baseline [13]: 111% and 107%
- % changes in PAP vs baseline [13]: 112% and 95%
- % changes in BP vs baseline [14]: 111% and 104%
- % changes in PAP vs baseline [14]: 112% and 92%
- % changes in BP vs baseline [15]: 112% and 103%
- % changes in PAP vs baseline [15]: 113% and 93%
- % changes in BP vs baseline [16]: 112% and 107%
- % changes in PAP vs baseline [16]: 113% and 93%
- % changes in BP vs baseline [17]: 112% and 110%
- % changes in PAP vs baseline [17]: 112% and 92%
- % changes in BP vs baseline [18]: 113% and 108%
- % changes in PAP vs baseline [18]: 110% and 92%
- % changes in BP vs baseline [19]: 113% and 108%
- % changes in PAP vs baseline [19]: 112% and 93%
- % changes in BP vs baseline [20]: 113%
- % changes in PAP vs baseline [20]: 111% and 93%
- % changes in BP vs baseline [21]: 112% and 110%
- % changes in PAP vs baseline [21]: 110% and 93%
- % changes in BP vs baseline [22]: 112% and 109%
- % changes in PAP vs baseline [22]: 109% and 93%
- % changes in BP vs baseline [23]: 113%
- % changes in PAP vs baseline [23]: 109% and 96%
- % changes in BP vs baseline [24]: 111% and 112%
- % changes in PAP vs baseline [24]: 109% and 94%
- % changes in BP vs baseline [25]: 110% and 112%
- % changes in PAP vs baseline [25]: 109% and 94%
- % changes in BP vs baseline [26]: 99% and 96%
- % changes in PAP vs baseline [26]: 99%
- lung selectivity with respect to the hemodynamic effect (inhaled, 30 μg/kg): good lung selectivity

Compound: O=C(O)c1ccc(CCN(CCc2cc(F)ccc2OCc2ccc(-c3nc4cc(Cl)ccc4o3)cc2)C2CCCc3nc(C(=O)O)ccc32)cc1 (single isomer, unassigned) [comparative example 4, 5-{[2-(4-Carboxyphenyl)ethyl][2-(2-{[4-(5-chloro-1,3-benzoxazol-2-yl)benzyl]oxy}-5-fluorophenyl)-ethyl]amino}-5,6,7,8-tetrahydroquinoline-2-carboxylic acid]
- BP % change vs. baseline (inhaled, time 80 min): 101.1% and 101.2% and 101.0%
- PAP % change vs. baseline (inhaled, time 80 min): 102.0% and 96.2% and 97.5%
- BP % change vs. baseline (inhaled, time 90 min): 98.7% and 100.3% and 101.0%
- PAP % change vs. baseline (inhaled, time 90 min): 100.2% (2×) and 102.2%
- BP % change vs. baseline (inhaled, time 100 min): 101.1% and 100.3% and 98.3%
- PAP % change vs. baseline (inhaled, time 100 min): 100.0% and 93.1% and 96.4%
- BP % change vs. baseline (inhaled, time 110 min): 99.9% and 102.2% and 98.3%
- PAP % change vs. baseline (inhaled, time 110 min): 97.2% and 88.9% and 89.8%
- BP % change vs. baseline (inhaled, time 120 min): 101.1% and 101.2% and 101.9%
- PAP % change vs. baseline (inhaled, time 120 min): 86.5% and 86.2% and 86.0%
- BP % change vs. baseline (inhaled, time 130 min): 99.9% and 99.4% and 100.1%
- PAP % change vs. baseline (inhaled, time 130 min): 77.5% and 78.6% and 84.6%
- BP % change vs. baseline (inhaled, time 140 min): 99.9% and 99.4% and 100.1%
- PAP % change vs. baseline (inhaled, time 140 min): 76.3% and 77.7% and 81.3%
- BP % change vs. baseline (inhaled, time 150 min): 99.9% and 98.5% and 100.1%
- PAP % change vs. baseline (inhaled, time 150 min): 77.3% and 75.0% and 78.7%
- BP % change vs. baseline (inhaled, time 160 min): 99.9% and 96.7% and 99.2%
- PAP % change vs. baseline (inhaled, time 160 min): 75.5% and 71.4% and 77.3%
- BP % change vs. baseline (inhaled, time 170 min): 101.1% and 97.6% and 99.2%
- PAP % change vs. baseline (inhaled, time 170 min): 72.1% and 71.9% and 75.1%
- BP % change vs. baseline (inhaled, time 180 min): 102.3% and 95.8% and 99.2%
- PAP % change vs. baseline (inhaled, time 180 min): 74.0% and 68.0% and 75.9%
- BP % change vs. baseline (inhaled, time 190 min): 102.3% and 95.8% and 99.2%
- PAP % change vs. baseline (inhaled, time 190 min): 74.5% and 65.0% and 77.1%
- BP % change vs. baseline (inhaled, time 200 min): 102.3% and 94.0% and 99.2%
- PAP % change vs. baseline (inhaled, time 200 min): 70.1% and 70.6% and 77.2%
- BP % change vs. baseline (inhaled, time 210 min): 103.5% and 94.0% and 99.2%
- PAP % change vs. baseline (inhaled, time 210 min): 70.8% and 65.6% and 76.8%
- BP % change vs. baseline (inhaled, time 220 min): 105.9% and 95.8% and 98.3%
- PAP % change vs. baseline (inhaled, time 220 min): 77.8% and 66.7% and 75.3%
- BP % change vs. baseline (inhaled, time 230 min): 107.1% and 94.9% and 97.4%
- PAP % change vs. baseline (inhaled, time 230 min): 82.5% and 71.3% and 73.9%
- BP % change vs. baseline (inhaled, time 240 min): 107.1% and 94.0% and 97.4%
- PAP % change vs. baseline (inhaled, time 240 min): 81.0% and 67.4% and 75.0%
- BP % change vs. baseline (inhaled, time 250 min): 109.4% and 94.9% and 98.3%
- PAP % change vs. baseline (inhaled, time 250 min): 79.0% and 72.2% and 75.0%
- BP % change vs. baseline (inhaled, time 260 min): 107.1% and 94.9% and 98.3%
- PAP % change vs. baseline (inhaled, time 260 min): 75.0% and 72.7% and 76.7%
- BP % change vs. baseline (inhaled, time 270 min): 107.1% and 94.9% and 97.4%
- PAP % change vs. baseline (inhaled, time 270 min): 70.3% and 71.1% and 78.4%
- BP % change vs. baseline (inhaled, time 280 min): 107.1% and 94.9% and 99.2%
- PAP % change vs. baseline (inhaled, time 280 min): 65.8% and 75.6% and 79.7%
- BP % change vs. baseline (inhaled, time 290 min): 107.1% and 94.0% and 98.3%
- PAP % change vs. baseline (inhaled, time 290 min): 68.3% and 73.4% and 79.9%
- BP % change vs. baseline (inhaled, time 300 min): 107.1% and 94.9% and 99.2%
- PAP % change vs. baseline (inhaled, time 300 min): 69.1% and 76.2% and 79.6%
- BP % change vs. baseline (inhaled, time 310 min): 107.1% and 94.9% and 98.3%
- PAP % change vs. baseline (inhaled, time 310 min): 62.8% and 79.9% and 79.5%
- BP % change vs. baseline (inhaled, time 320 min): 104.7% and 94.9% and 99.2%
- PAP % change vs. baseline (inhaled, time 320 min): 61.8% and 76.5% and 81.3%
- BP % change vs. baseline (inhaled, time 330 min): 107.1% and 94.0% and 101.0%
- PAP % change vs. baseline (inhaled, time 330 min): 63.1% and 77.9% and 83.3%
- lung selectivity (inhaled, nominal dose of 100 μg/kg): good lung selectivity

Compound: O=C(O)CCCCN(CCc1ccccc1OCc1ccc(CCc2ccccc2)cc1)Cc1ccc(C(=O)O)cc1 [comparative example 1, 4-[((4Carboxybutyl)-{2-[(4-phenethylbenzyl)oxy]phenethyl}amino)methyl]benzoic acid]
- % changes in BP vs baseline (inhaled 10 μg/kg, 0 min vs. start inhalation, listed as Cinaciguat): 100% and 101%
- % changes in BP vs baseline (inhaled 10 μg/kg, 10 min vs. start inhalation, listed as Cinaciguat): 89% and 86%
- % changes in BP vs baseline (inhaled 10 μg/kg, 20 min vs. start inhalation, listed as Cinaciguat): 83% and 82%
- % changes in BP vs baseline (inhaled 10 μg/kg, 30 min vs. start inhalation): 82%
- % changes in BP vs baseline (inhaled 10 μg/kg, 40 min vs. start inhalation): 84%
- % changes in BP vs baseline (inhaled 10 μg/kg, 50 min vs. start inhalation, listed as Cinaciguat): 87% and 85%
- % changes in BP vs baseline (inhaled 10 μg/kg, 60 min vs. start inhalation, listed as Cinaciguat): 91% and 87%
- % changes in BP vs baseline (inhaled 10 μg/kg, 70 min vs. start inhalation, listed as Cinaciguat): 94% and 88%
- % changes in BP vs baseline (inhaled 10 μg/kg, 80 min vs. start inhalation, listed as Cinaciguat): 95% and 90%
- % changes in BP vs baseline (inhaled 10 μg/kg, 90 min vs. start inhalation, listed as Cinaciguat): 99% and 92%
- % changes in BP vs baseline (inhaled 10 μg/kg, −5 min vs. start inhalation, listed as Cinaciguat): 100% and 99%
